Columns and labels:
[1] = test system: relapsed B-ALL cells (ALL121); experiment: PDX model of ALL: NSG mice engrafted with ALL121, spleen size and human ALL cells in spleen; assay type: in vivo; details: idela monotherapy 50 mg/kg daily, two weeks
Description: As proof of concept, we tested this combination in a PDX model of ALL.

[2] = test system: NALM-6; experiment: qPCR of effector genes, dex and CAL-101 alone and combined, 24 hours; assay type: cell-based, human; details: NALM-6, CAL-101 alone
Description: (§1) Cell death assays: We used PrestoBlue to measure cell viability in response to knockdown and treatment. Cells were grown to a density of 250,000 cell/ml, then dispensed into black tissue culture plates and grown overnight. In the morning, cells were treated. For both CAL-101 (Selleckchem, S2226) and dex (Sigma, D4902), viability was measured after 3 days. As PrestoBlue measures NADPH/NADH metabolites, the balance of which can be affected by GC treatment, we performed frequent cell count spot checks manually by trypan blue exclusion to ensure that fluorescence measurements reflected true viability. Both CAL-101 and dex were dissolved in ethanol, and used 1:1000 in cell culture for a final ethanol concentration of 0.1%. Combination treatments were performed in triplicate in 384 well plates with 20 dilutions of dex from 10^M to 0 and 9 dilutions of CAL-101 from 10^M to 0. Viabilities and EC50 were then calculated using four parameter non-least squares fitting using Prism 6. qPCR of Causative genes: Cells were grown to a density of 1 million cells/ml, then aliquoted into 6 well plates in the afternoon, then grown overnight. Cells were then treated with the drugs and times indicated, at which point cells were spun down at 400 g for 5 minutes, the medium aspirated, and the pellet resuspended in 0.7 ml Qiazol/Trizol and frozen. RNA was then isolated using the miRNAeasy protocol. cDNA was then prepared form 1^g of RNA suing SuperScript3, and qPCR performed using BioRad iQ mix. Primers for qPCR were designed using the IDT web site, then tested for each gene. […] Expression levels for each gene were corrected for primer efficiency, normalized to RPL19, then compared to controls (Pfaffl, 2001).
(§2) The optimal signal was determined by incubating cells with 1 ^M dex for 0, 4, 8, and 24 hours. […] Each experiment was performed at least three times, and analyzed using GraphPad (Prism 6). Significant differences between drug and control and between either drug alone and combinations was determined by two sided Student's t-test (P-Value<0.05).

[3] = test system: RCH-ACV; experiment: as above; assay type: cell-based, human; details: addition of CAL-101 to dex
Description: as §1, §2

[4] = test system: SUP-B15; experiment: as above; assay type: cell-based, human; details: SUP-B15, addition of CAL-101 to dex
Description: as §1, §2

[5] = test system: five B-ALL samples (NALM-6, SUP-B15, RCH-ACV, HM3101, ALL121); experiment: Combination of dex and CAL-101: isoboles and combination index (Calcusyn); assay type: cell-based, human; details: lowest value over the samples; super additive <1, Calcusyn
Description: (§3) Cell death assays: We used PrestoBlue to measure cell viability in response to knockdown and treatment. Cells were grown to a density of 250,000 cell/ml, then dispensed into black tissue culture plates and grown overnight. In the morning, cells were treated. For both CAL-101 (Selleckchem, S2226) and dex (Sigma, D4902), viability was measured after 3 days. As PrestoBlue measures NADPH/NADH metabolites, the balance of which can be affected by GC treatment, we performed frequent cell count spot checks manually by trypan blue exclusion to ensure that fluorescence measurements reflected true viability. Both CAL-101 and dex were dissolved in ethanol, and used 1:1000 in cell culture for a final ethanol concentration of 0.1%. Combination treatments were performed in triplicate in 384 well plates with 20 dilutions of dex from 10^M to 0 and 9 dilutions of CAL-101 from 10^M to 0. Viabilities and EC50 were then calculated using four parameter non-least squares fitting using Prism 6. qPCR of Causative genes: Cells were grown to a density of 1 million cells/ml, then aliquoted into 6 well plates in the afternoon, then grown overnight. Cells were then treated with the drugs and times indicated, at which point cells were spun down at 400 g for 5 minutes, the medium aspirated, and the pellet resuspended in 0.7 ml Qiazol/Trizol and frozen. […]

[6] = test system: SUP-B15; experiment: Cell death assay (PrestoBlue viability, 3 days); assay type: cell-based, human; details: SUP-B15, highest concentration (10 μM), 3 days
Description: as §1
The optimal signal was determined by incubating cells with 1 ^M dex for 0, 4, 8, and 24 hours. […] Cells were incubated with dex alone, CAL-101 alone, and in combination for 24 hours, then harvested and qPCR performed as described above. Each experiment was performed at least three times, and analyzed using GraphPad (Prism 6). Significant differences between drug and control and between either drug alone and combinations was determined by two sided Student's t-test (P-Value<0.05).
Three cell lines (NALM6, SUP-B15, and RCH-ACV), one resistant patient sample (HM3101), and one relapsed Phlike xenograft (ALL121) were incubated with increasing concentrations of dex or CAL-101 for 3 days. Cell viability was measured by PrestoBlue staining. Curves, values, and errors are based on at least 3 replicates. Bar plot of the EC50, calculated by four-parameter least-squares fitting (Both plotted and calculated in GraphPad Prism).

[7] = test system: resistant patient sample HM3101; experiment: Cell death assay (PrestoBlue viability, 3 days); assay type: cell-based, human; details: HM3101, highest concentration (10 μM)
Description: as §3, with “Combination treatments were performed in triplicate in 384 well plates with 20 dilutions of dex from 10^M to 0 and 9 dilutions of CAL-101 from 10^M to 0.” left out, “overnight.” for “overnight. Cells were then treated with the drugs and times indicated, at which point cells were spun down at 400 g for 5 minutes, the medium aspirated, and the pellet resuspended in 0.7 ml Qiazol/Trizol and frozen.”
The results as shown in FIGS. 14A-14B generally highlight the EC50 of BCP-ALL specimens for dexamethasone and CAL-101. […] Cell viability was measured by PrestoBlue staining. […] Bar plot of the EC50, calculated by four-parameter least-squares fitting (Both plotted and calculated in GraphPad Prism). […]

CC[C@H](Nc1ncnc2[nH]cnc12)c1nc2cccc(F)c2c(=O)n1-c1ccccc1 [CAL-101]
effect on spleens (spleen size) [1]: no effect | TXNIP regulation [2]: no effect | PIK3CD expression [3]: no significant effect | PIK3CD expression [4]: no significant effect | combination index of dex and CAL-101 [5]: ≥ 0.13 | death caused by CAL-101 [6]: < 50% | death caused by CAL-101 [7]: < 50%
